What was measured:
[1] = test system: pancreatic exocrine function; assay: 13C-dipeptide breath test in chronic pancreatitis rats (oleic acid injected into pancreatic duct); assay type: in vivo, rat; settings: oral 35 μmol/kg, mean±SD
Method: (§1) Overnight-fasted rats (male, Wistar, 8-week old) in the awake state were individually fixed in a rat holder of a microwave irradiation apparatus. The breath was collected at a rate of about 100 to 300 ml/min using a stroke pump (Variable Stroke Pump VS-500; Shibata Kagaku Kogyo), and the CO2 concentration therein was maintained at about 3%. A Perma Pure drier (MD-050-12P; Perma Pure INC.) was set between the rat holder and the stroke pump to remove water vapor from the breath. When the CO2 concentration was stabilized, the rat was temporarily released from the rat holder. A ^13C-labeled dipeptide or a sodium salt thereof each dissolved in distilled water was administered to the stomach of the rat using an oral probe [dose: 35 μmol/kg (5 ml/kg)]. The breath was sampled with a syringe every 5 min until up to 20 min. A 15 ml sample was transferred from the syringe into a vacuum vial (10 ml), sealed and subjected to automated analysis by GC-MS (Breath MAT) [FinniganMAT]. Δ^13C(‰) was calculated from δ^13C values which are ^13C values of a sample (i.e. differences from the standard substance PDB) using the following formula. Δ^13C(‰)=(δ^13C)tmin−((δ^13C)0 min <Breath MAT Measuring Conditions>
Chronic pancreatitis rats were created according to the method of Mundlos et al., Pancreas 1:29 (1986). Oleic acid was injected into the pancreatic duct of 5-week old Wistar male rats. After breeding for 3 weeks, they were used in ^13C-dipeptide breath tests.
(§2) As in Example 12, Bz-Phe-(^13C-Ala)-ONa [dose: 12.6 mg/kg (35 μmol/kg)], Bz-Gln-(^13C-Ala)-ONa [dose: 12.0 mg/kg (35 μmol/kg)], Bz-Val-(^13C-Ala)-ONa [dose: 11.0 mg/kg (35 μmol/kg)], Bz-Tyr-(^13C-Ala)-ONa [dose: 13.2 mg/kg (35 μmol/kg)], Bz-Met-(^13C-Ala)-ONa [dose: 12.1 mg/kg (35 μmol/kg)], Bz-Ser-(^13C-Ala)-ONa [dose: 10.6 mg/kg (35 μmol/kg)], Bz-Thr-(^13C-Ala)-ONa [dose: 11.0 mg/kg (35 μmol/kg)] or Boc-Phe-(^13C-Ala)-ONa [dose: 8.84 mg/kg (24.6 μmol/kg)] was administered orally to normal rats and chronic pancreatitis rats. Then, the time course of the degree of increase of the ^13C concentration in exhaled CO2 (Δ^13C(‰)) was measured.

[2] = test system: pancreatic exocrine function; assay: 13C-dipeptide breath test in normal rats (Δ13C in exhaled CO2 after oral administration); assay type: in vivo, rat; settings: for Δ^13C(‰) peak value / Peak time: Table 1, overnight-fasted Wistar rats, oral 35 μmol/kg (5 ml/kg); for Δ^13C(‰) peak value: exhaled CO2; for Peak time: peak in time course of Δ13C(‰) up to 20 min; for Δ^13C(‰) value at 5 min after the administration / Δ^13C(‰) value at 10 min after the administration / Δ^13C(‰) value at 15 min after the administration / Δ^13C(‰) value at 20 min after the administration: normal rats, mean±SD; for Δ^13C(‰) value at 5 min after the administration / Δ^13C(‰) value at 10 min after the administration / Δ^13C(‰) value at 15 min after the administration / Δ^13C(‰) value at 20 min after the administration / Δ^13C(‰) peak value compared with the peak value of Bz-Ala-(^13C-Ala)-ONa: oral 35 μmol/kg; for Δ^13C(‰) peak value compared with the peak value of Bz-Ala-(^13C-Ala)-ONa: rats, comparison in words
Method: as §1
Apparatus: Breath MAT plus (Finningan)
Using Ac-Met-(^13C-Ala)-ONa, Z-Met-(^13C-Ala)-ONa, Boc-Met-(^13C-Ala)-ONa or Boc-Phe-(^13C-Ala)-ONa [dose: 35 μmol/kg (5 ml/kg)], ^13C-breath tests were carried out in the same manner as in Example 12. The resultant Δ^13C(‰) peak values were compared with the Δ^13C(‰) peak value in the Bz-Ala-(^13C-Ala)-ONa breath test.
as §2

Δ^13C(‰) value at 5 min after the administration [1]	Δ^13C(‰) value at 10 min after the administration [1]	Δ^13C(‰) value at 15 min after the administration [1]	Δ^13C(‰) value at 20 min after the administration [1]	Δ^13C(‰) peak value [2]	Peak time [2]	Δ^13C(‰) value at 5 min after the administration [2]	Δ^13C(‰) value at 10 min after the administration [2]	Δ^13C(‰) value at 15 min after the administration [2]	Δ^13C(‰) value at 20 min after the administration [2]	Δ^13C(‰) peak value compared with the peak value of Bz-Ala-(^13C-Ala)-ONa [2]	Structure (SMILES)
4.35±3.11 ‰	15.65±7.93 ‰	24.68±9.48 ‰	29.25±9.98 ‰	52.64 ‰	15 min	10.33±6.34 ‰	33.62±4.76 ‰	52.64±11.32 ‰	45.61±5.27 ‰	higher	C[C@H](NC(=O)[C@H](Cc1ccc(O)cc1)NC(=O)c1ccccc1)[13C](=O)[O-].[Na+] [Na salt of Bz-Tyr-(^13C-Ala), N-benzoyl-L-tyrosyl-^13C-L-alanine]
	12.67±19.74 ‰	19.78±24.70 ‰		47.36 ‰	10 min		47.36±10.99 ‰	47.11±5.67 ‰		higher	C[C@H](NC(=O)[C@@H](NC(=O)c1ccccc1)[C@@H](C)O)[13C](=O)[O-].[Na+] [Na salt of Bz-Thr-(^13C-Ala), N-benzoyl-L-threonyl-^13C-L-alanine]
2.21±2.74 ‰	10.62±12.40 ‰	18.80±19.39 ‰	23.95±19.38 ‰	52.89 ‰	15 min	13.98±6.59 ‰	35.22±8.02 ‰	52.89±11.18 ‰	45.38±6.53 ‰	higher	CC(C)[C@H](NC(=O)c1ccccc1)C(=O)N[C@@H](C)[13C](=O)[O-].[Na+] [Na salt of Bz-Val-(^13C-Ala), N-benzoyl-L-valyl-^13C-L-alanine]

Source: patent publication US7662857B2, “Diagnostic agents for pancreatic exocrine function” (Tokyo Gas Company Limited, priority 2001, dated 2010)
